Test results as given in patent publication US20230241093A1, “TARGETING ADISPSIN FOR NONALCOHOLIC STEATOHEPATITIS (NASH)- INDUCED LIVER FIBROSIS” (The Trustees of Columbia University in the City of New York, priority 2020, published 2023).

Test system: hepatic stellate cells (HSC)
Assay: Gene expression in hepatic stellate cells after treatment with recombinant C3a
Format: cell-based
Settings: recombinant C3a vs control (vehicle alone), FIG. 3B
Experimental: FIG. 3. Adipsin/C3a effects on liver fibrosis. A. Complement C3 cleavage products as assessed by Western blot in conditioned medium from hepatocytes with or without Adipsin expression. B. Gene expression in hepatic stellate cells (HSC) after treatment with vehicle or recombinant C3a.
The effects of Adipsin/C3a on liver fibrosis was analyzed.

## recombinant C3a: recombinant complement C3 cleavage product C3a, used to treat hepatic stellate cells
  Acta2 gene expression in hepatic stellate cells: dose dependent increase
  Collal gene expression in hepatic stellate cells: dose dependent increase
